Assay results taken from patent US11767310B2, “Nicotinamide RIPK1 inhibitors” (AbbVie Inc., priority 2021, dated 2023).
Like-named read-outs stand apart in the source and are kept apart here.

Experiments:
Assay in all cases: Kinase binding screen
Details in all cases: read-out: Percent Control at 100 nM Compound Concentration
CDK9 = CDK9 (Homo sapiens (Human), UniProt P50750)
BMPR2 = BMPR2 (Homo sapiens (Human), UniProt Q13873)
PLK3 = PLK3 (Homo sapiens (Human), UniProt Q9H4B4)
EGFR(L858R) = EGFR(L858R) (Homo sapiens (Human), UniProt P00533, L858R)
EPHB2 = EPHB2 (Homo sapiens (Human), UniProt P29323)
LATS1 = LATS1 (Homo sapiens (Human), UniProt O95835)
Sequence of LATS1 (O95835 whole entry): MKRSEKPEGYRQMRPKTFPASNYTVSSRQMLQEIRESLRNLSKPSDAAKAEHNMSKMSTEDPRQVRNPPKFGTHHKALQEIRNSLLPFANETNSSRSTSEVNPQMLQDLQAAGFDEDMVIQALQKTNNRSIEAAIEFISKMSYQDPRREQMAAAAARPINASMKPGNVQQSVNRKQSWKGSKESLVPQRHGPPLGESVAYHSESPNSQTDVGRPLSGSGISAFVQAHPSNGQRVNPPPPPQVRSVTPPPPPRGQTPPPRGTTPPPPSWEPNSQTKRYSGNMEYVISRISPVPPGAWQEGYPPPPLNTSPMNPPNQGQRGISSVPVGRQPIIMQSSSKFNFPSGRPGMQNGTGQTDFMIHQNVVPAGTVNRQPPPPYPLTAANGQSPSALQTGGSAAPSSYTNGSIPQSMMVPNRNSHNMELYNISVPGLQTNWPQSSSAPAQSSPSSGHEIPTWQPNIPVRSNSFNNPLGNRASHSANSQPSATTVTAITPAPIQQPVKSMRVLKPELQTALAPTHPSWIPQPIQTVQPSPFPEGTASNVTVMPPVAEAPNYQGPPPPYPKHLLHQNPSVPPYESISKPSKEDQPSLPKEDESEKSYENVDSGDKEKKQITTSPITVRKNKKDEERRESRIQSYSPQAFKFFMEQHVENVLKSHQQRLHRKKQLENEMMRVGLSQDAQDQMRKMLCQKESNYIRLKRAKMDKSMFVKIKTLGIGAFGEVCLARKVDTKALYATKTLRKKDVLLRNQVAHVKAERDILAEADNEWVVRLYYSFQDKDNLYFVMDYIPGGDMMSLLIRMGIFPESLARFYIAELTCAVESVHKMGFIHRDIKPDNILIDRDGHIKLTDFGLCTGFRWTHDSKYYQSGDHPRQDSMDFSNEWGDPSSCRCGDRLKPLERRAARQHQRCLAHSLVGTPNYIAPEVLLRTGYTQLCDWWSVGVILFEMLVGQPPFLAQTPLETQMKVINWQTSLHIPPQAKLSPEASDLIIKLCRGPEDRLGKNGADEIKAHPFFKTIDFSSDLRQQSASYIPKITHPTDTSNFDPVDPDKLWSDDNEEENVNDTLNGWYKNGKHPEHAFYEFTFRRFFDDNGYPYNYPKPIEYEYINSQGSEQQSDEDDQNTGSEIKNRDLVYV

PIK3CA(E545A) = PIK3CA(E545A) (Homo sapiens (Human), UniProt P42336, E545A)
NDR2 = NDR2 (Homo sapiens (Human), UniProt Q9Y2H1)
GAK = GAK (Homo sapiens (Human), UniProt O14976)
Sequence of GAK (O14976 whole entry): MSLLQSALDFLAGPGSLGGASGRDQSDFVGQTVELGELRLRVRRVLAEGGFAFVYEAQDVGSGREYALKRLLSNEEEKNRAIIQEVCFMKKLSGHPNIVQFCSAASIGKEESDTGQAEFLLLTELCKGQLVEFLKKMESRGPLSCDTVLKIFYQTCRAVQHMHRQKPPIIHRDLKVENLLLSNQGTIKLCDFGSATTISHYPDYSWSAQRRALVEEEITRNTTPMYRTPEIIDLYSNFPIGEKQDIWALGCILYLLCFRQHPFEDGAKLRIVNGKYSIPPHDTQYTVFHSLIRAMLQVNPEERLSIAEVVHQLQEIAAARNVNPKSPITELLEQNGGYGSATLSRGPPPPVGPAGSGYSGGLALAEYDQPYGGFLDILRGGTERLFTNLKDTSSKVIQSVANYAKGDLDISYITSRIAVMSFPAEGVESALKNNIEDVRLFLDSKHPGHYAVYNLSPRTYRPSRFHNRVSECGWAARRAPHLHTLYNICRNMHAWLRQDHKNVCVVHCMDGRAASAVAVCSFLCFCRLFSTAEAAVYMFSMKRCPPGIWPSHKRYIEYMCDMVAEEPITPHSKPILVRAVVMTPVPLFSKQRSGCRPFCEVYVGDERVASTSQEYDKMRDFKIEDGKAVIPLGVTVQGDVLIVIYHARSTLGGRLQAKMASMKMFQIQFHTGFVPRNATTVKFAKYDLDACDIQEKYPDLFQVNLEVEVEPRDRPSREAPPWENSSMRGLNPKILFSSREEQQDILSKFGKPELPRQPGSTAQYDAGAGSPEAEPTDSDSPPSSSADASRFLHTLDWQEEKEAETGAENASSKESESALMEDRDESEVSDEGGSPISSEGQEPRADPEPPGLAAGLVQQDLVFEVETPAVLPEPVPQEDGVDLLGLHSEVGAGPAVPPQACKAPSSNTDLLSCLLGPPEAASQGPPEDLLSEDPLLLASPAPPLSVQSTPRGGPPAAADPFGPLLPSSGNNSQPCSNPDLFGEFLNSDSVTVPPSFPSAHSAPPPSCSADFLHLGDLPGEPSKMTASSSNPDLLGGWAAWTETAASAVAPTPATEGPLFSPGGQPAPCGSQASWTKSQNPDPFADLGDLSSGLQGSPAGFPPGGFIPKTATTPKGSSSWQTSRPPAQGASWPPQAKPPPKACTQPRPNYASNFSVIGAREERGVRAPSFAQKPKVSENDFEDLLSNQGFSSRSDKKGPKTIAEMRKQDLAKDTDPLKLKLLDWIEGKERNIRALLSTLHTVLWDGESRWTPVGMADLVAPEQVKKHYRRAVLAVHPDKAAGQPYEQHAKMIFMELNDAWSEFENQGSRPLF

DAPK3 = DAPK3 (Homo sapiens (Human), UniProt O43293)
[1] = target: ABL1(T315I)-phosphorylated (Homo sapiens (Human), UniProt P00519, T315I)
TBK1 = TBK1 (Homo sapiens (Human), UniProt Q9UHD2)
MAP3K2 = MAP3K2 (Homo sapiens (Human), UniProt Q9Y2U5)
[2] = target: RPS6KA5(Kin.Dom.1-N-terminal) (Homo sapiens (Human), UniProt O75582)
PLK1 = PLK1 (Homo sapiens (Human), UniProt P53350)
Sequence of PLK1 (P53350 whole entry): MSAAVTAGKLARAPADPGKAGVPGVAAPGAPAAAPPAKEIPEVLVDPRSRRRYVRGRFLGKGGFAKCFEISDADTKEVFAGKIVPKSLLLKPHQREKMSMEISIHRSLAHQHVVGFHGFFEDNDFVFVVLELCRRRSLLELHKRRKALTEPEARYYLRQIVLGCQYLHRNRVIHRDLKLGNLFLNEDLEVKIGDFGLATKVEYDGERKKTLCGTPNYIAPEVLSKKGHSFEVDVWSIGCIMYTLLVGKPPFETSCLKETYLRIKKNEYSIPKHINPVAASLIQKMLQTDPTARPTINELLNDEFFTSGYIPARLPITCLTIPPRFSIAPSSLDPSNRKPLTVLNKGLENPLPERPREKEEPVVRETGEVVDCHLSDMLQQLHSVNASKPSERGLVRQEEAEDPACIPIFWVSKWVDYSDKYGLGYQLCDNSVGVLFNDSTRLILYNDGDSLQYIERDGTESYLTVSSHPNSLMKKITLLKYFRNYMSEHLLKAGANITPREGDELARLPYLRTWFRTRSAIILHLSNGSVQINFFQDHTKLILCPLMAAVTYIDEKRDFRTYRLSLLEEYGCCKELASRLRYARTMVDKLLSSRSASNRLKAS

GCN2(Kin.Dom.2,S808G) = GCN2(Kin.Dom.2,S808G) (Homo sapiens (Human), UniProt Q9P2K8, S808G)
Sequence of GCN2(Kin.Dom.2,S808G) (Q9P2K8 590-1001 S808G): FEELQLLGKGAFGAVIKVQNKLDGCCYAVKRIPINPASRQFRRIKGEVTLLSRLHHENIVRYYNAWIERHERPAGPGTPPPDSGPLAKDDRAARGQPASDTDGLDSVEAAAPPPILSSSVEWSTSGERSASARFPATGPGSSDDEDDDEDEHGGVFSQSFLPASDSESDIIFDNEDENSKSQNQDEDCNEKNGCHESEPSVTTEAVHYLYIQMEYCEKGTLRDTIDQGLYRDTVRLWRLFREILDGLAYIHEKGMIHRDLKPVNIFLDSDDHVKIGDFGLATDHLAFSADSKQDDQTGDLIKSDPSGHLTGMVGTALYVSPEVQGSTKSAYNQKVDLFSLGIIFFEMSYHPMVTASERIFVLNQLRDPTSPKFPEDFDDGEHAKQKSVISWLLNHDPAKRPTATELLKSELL

KIT(L576P) = KIT(L576P) (Homo sapiens (Human), UniProt P10721, L576P)
TLK1 = TLK1 (Homo sapiens (Human), UniProt Q9UKI8)
ZAK = ZAK (Homo sapiens (Human), UniProt Q9NYL2)
DAPK1 = DAPK1 (Homo sapiens (Human), UniProt P53355)
FGFR3(G697C) = FGFR3(G697C) (Homo sapiens (Human), UniProt P22607, G697C)
Sequence of FGFR3(G697C) (P22607 23-806 G697C): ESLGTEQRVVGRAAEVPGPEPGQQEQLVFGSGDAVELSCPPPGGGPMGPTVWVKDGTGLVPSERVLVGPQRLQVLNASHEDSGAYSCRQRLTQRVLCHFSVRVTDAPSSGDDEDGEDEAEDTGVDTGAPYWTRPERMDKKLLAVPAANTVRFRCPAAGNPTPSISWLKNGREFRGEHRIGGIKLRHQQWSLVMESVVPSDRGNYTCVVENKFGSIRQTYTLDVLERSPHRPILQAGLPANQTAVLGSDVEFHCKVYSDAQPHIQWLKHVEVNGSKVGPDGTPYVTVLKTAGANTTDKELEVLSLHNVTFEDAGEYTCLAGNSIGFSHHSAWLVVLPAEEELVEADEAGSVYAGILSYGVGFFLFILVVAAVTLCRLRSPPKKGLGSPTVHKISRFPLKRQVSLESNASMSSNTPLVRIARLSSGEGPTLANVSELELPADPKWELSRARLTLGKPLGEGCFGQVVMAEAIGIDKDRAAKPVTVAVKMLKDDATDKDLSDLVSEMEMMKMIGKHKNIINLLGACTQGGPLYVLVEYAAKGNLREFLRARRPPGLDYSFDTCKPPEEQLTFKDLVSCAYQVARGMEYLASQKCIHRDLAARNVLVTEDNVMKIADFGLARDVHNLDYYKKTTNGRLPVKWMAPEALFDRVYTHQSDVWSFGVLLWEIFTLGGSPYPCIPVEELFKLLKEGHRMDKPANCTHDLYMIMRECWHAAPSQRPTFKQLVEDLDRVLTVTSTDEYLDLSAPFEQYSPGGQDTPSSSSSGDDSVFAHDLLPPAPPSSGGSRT

FLT3-autoinhibited = FLT3-autoinhibited (Homo sapiens (Human), UniProt P36888)
MRCKB = MRCKB (Homo sapiens (Human), UniProt Q9Y5S2)
ERBB3 = ERBB3 (Homo sapiens (Human), UniProt P21860)
RET(V804L) = RET(V804L) (Homo sapiens (Human), UniProt P07949, V804L)
TNK2 = TNK2 (Homo sapiens (Human), UniProt Q07912)
PLK2 = PLK2 (Homo sapiens (Human), UniProt Q9NYY3)
BUB1 = BUB1 (Homo sapiens (Human), UniProt O43683)

Sequence of PLK3 (Q9H4B4 whole entry): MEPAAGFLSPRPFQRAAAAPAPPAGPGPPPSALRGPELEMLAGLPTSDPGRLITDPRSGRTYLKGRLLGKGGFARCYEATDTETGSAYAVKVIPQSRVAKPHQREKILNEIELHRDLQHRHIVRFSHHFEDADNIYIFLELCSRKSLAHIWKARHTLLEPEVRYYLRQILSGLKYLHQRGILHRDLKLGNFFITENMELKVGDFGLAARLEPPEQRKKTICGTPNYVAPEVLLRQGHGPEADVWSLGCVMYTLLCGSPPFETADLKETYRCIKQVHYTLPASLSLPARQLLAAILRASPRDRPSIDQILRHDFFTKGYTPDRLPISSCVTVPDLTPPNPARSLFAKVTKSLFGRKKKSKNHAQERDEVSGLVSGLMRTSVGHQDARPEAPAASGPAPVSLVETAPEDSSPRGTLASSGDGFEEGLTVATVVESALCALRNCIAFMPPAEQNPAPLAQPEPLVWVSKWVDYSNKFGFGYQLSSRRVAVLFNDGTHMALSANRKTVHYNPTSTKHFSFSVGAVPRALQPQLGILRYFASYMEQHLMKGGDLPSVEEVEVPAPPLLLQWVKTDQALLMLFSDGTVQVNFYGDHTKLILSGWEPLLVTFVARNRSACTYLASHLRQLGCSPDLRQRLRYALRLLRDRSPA

**Q.** Which results are given for `CN(C[C@H](Cc1ccccc1)OP(=O)(O)O)C(=O)c1cncc(C#Cc2cnn(C(F)F)c2)c1` [Example 19, (S)-1-(5-((1-(difluoromethyl)-1H-pyrazol-4-yl)ethynyl)-N-methylnicotinamido)-3-phenylpropan-2-yl dihydrogen phosphate]?
**A.** remaining activity at 0.1 µM (CDK9): 100%; remaining activity at 0.1 µM (BMPR2): 89%; remaining activity at 0.1 µM (PLK3): 92%; remaining activity at 0.1 µM (EGFR(L858R)): 94%; remaining activity at 0.1 µM (EPHB2): 100%; remaining activity at 0.1 µM (LATS1): 88%; remaining activity at 0.1 µM (PIK3CA(E545A)): 94%; remaining activity at 0.1 µM (NDR2): 84%; remaining activity at 0.1 µM (GAK): 100%; remaining activity at 0.1 µM (DAPK3): 97%; remaining activity at 0.1 µM [1]: 92%; remaining activity at 0.1 µM (TBK1): 84%; remaining activity at 0.1 µM (MAP3K2): 95%; remaining activity at 0.1 µM [2]: 100%; remaining activity at 0.1 µM (PLK1): 87%; remaining activity at 0.1 µM (GCN2(Kin.Dom.2,S808G)): 97%; remaining activity at 0.1 µM (KIT(L576P)): 98%; remaining activity at 0.1 µM (TLK1): 100%; remaining activity at 0.1 µM (ZAK): 100%; remaining activity at 0.1 µM (DAPK1): 100%; remaining activity at 0.1 µM (FGFR3(G697C)): 100%; remaining activity at 0.1 µM (FLT3-autoinhibited): 96%; remaining activity at 0.1 µM (MRCKB): 100%; remaining activity at 0.1 µM (ERBB3): 100%; remaining activity at 0.1 µM (RET(V804L)): 100%; remaining activity at 0.1 µM (TNK2): 100%; remaining activity at 0.1 µM (PLK2): 91%; remaining activity at 0.1 µM (BUB1): 85%

**Q.** For `CN(C[C@@H](O)Cc1ccccc1)C(=O)c1cncc(C#Cc2cnn(C(F)F)c2)c1` [Example 2, (S)-5-((1-(difluoromethyl)-1H-pyrazol-4-yl)ethynyl)-N-(2-hydroxy-3-phenylpropyl)-N-methylnicotinamide], which remaining activity at 0.1 µM (CDK9; CDK9) is on record?
**A.** 100%

**Q.** And the remaining activity at 0.1 µM (BMPR2; BMPR2)?
**A.** 100%

**Q.** And the remaining activity at 0.1 µM (PLK3; PLK3)?
**A.** 97%

**Q.** What about the remaining activity at 0.1 µM (EGFR(L858R); EGFR(L858R)) of the same compound?
**A.** 100%

**Q.** What about the remaining activity at 0.1 µM (EPHB2; EPHB2) of the same compound?
**A.** 100%

**Q.** What about the remaining activity at 0.1 µM (LATS1; LATS1) of the same compound?
**A.** 100%

**Q.** What about the remaining activity at 0.1 µM (PIK3CA(E545A); PIK3CA(E545A)) of the same compound?
**A.** 89%

**Q.** What about the remaining activity at 0.1 µM (NDR2; NDR2) of the same compound?
**A.** 94%

**Q.** What about the remaining activity at 0.1 µM (GAK; GAK) of the same compound?
**A.** 100%

**Q.** And the remaining activity at 0.1 µM (DAPK3; DAPK3)?
**A.** 100%

**Q.** What about the remaining activity at 0.1 µM ([1]; ABL1(T315I)-phosphorylated) of the same compound?
**A.** 80%

**Q.** And the remaining activity at 0.1 µM (TBK1; TBK1)?
**A.** 79%

**Q.** What about the remaining activity at 0.1 µM (MAP3K2; MAP3K2) of the same compound?
**A.** 99%

**Q.** What about the remaining activity at 0.1 µM ([2]; RPS6KA5(Kin.Dom.1-N-terminal)) of the same compound?
**A.** 91%

**Q.** And the remaining activity at 0.1 µM (PLK1; PLK1)?
**A.** 87%

**Q.** What about the remaining activity at 0.1 µM (GCN2(Kin.Dom.2,S808G); GCN2(Kin.Dom.2,S808G)) of the same compound?
**A.** 95%

**Q.** And the remaining activity at 0.1 µM (KIT(L576P); KIT(L576P))?
**A.** 100%

**Q.** What about the remaining activity at 0.1 µM (TLK1; TLK1) of the same compound?
**A.** 100%

**Q.** What about the remaining activity at 0.1 µM (ZAK; ZAK) of the same compound?
**A.** 100%

**Q.** What about the remaining activity at 0.1 µM (DAPK1; DAPK1) of the same compound?
**A.** 100%

**Q.** And the remaining activity at 0.1 µM (FGFR3(G697C); FGFR3(G697C))?
**A.** 100%

**Q.** And the remaining activity at 0.1 µM (FLT3-autoinhibited; FLT3-autoinhibited)?
**A.** 95%

**Q.** What about the remaining activity at 0.1 µM (MRCKB; MRCKB) of the same compound?
**A.** 95%

**Q.** And the remaining activity at 0.1 µM (ERBB3; ERBB3)?
**A.** 100%

**Q.** What about the remaining activity at 0.1 µM (RET(V804L); RET(V804L)) of the same compound?
**A.** 100%

**Q.** And the remaining activity at 0.1 µM (TNK2; TNK2)?
**A.** 100%

**Q.** And the remaining activity at 0.1 µM (PLK2; PLK2)?
**A.** 98%

**Q.** And the remaining activity at 0.1 µM (BUB1; BUB1)?
**A.** 93%
